In US12655394B2, “Ovarian cancer organoid culture” (MAX-PLANCK-GESELLSCHAFT ZUR FÖRDERUNG DER WISSENSCHAFTEN …, priority 2018, dated 2026):
“Also recorded” adds a separate entry of the source.

B1: Wnt 3a: Wnt protein, e.g. human Wnt 3a (RefSeq NP_149122) (protein, UniProt P56704 19-352, looked up)
Protein Wnt-3a: SYPIWWSLAVGPQYSSLGSQPILCASIPGLVPKQLRFCRNYVEIMPSVAEGIKIGIQECQHQFRGRRWNCTTVHDSLAIFGPVLDKATRESAFVHAIASAGVAFAVTRSCAEGTAAICGCSSRHQGSPGKGWKWGGCSEDIEFGGMVSREFADARENRPDARSAMNRHNNEAGRQAIASHMHLKCKCHGLSGSCEVKTCWWSQPDFRAIGDFLKDKYDSASEMVVEKHRESRGWVETLRPRYTYFKVPTERDLVYYEASPNFCEPNPETGSFGTRDRTCNVSSHGIDGCDLLCCGRGHNARAERRREKCRCVFHWCCYVSCQECTRVYDVHTCK

Key:
[1] = tested on: organoid cell lines ORG1 and ORG2; assay: Carboplatin treatment of organoid cancer lines, cell viability by luminescence (Cell Titer Glow 3D); type: cell-based, human; conditions: patient-derived HGSC organoid lines, triplicates, FIG. 5
Experimental: Cell vialiability (y axis) was determined proportional to the strength of luminiscence signal (Cell Titer® Glow 3D Promega). […] Immunofluorescence analysis of the key structural and functional biomarkers confirmed that organoids match native tumor tissue in phenotype, e.g. PAX8 confirming Mullerean lineage, EpCAM, p53 and p16 (FIG. 4). All tested organoid cultures were matched in phenotype to the fragment of native tumor processed and stained in standard procedure which was used for clinical diagnosis. Ovarian cancer cancer organoids mostly lack central cavities in contrast to fallopian tube organoids which are built of polarized epithelial monolayers. This is expected as histological atypia and stratification are present already in the early stages of the carcinogenesis in the fallopian tube (Shaw et al 2009, Modern Pathology 22, 1135-1138). Panel sequencing of paired organoid culture and tissue confirmed that the tested organoids recapitulate cancer tissue composition also on the genomic level. Importantly cultures can be expanded to multi-well format to enable high throughput experimental set up.

[2] = tested on: ovarian cancer stem cells; assay: Establishment of ovarian cancer organoid lines with exogenous Wnt 3a supplementation; type: cell-based, human; conditions: all established lines grew in Wnt3a-negative media
Experimental: • Adv. +++: Advanced F12 Medium+HEPES (6 ml)+Glutamax (5 ml)+5% fetal calf serum (FCS) • Adv. ++: Advanced F12 Medium+HEPES (6 ml)+Glutamax (5 ml) • Cut tissue with a scissor in small pieces and then mince further with scalpel for 3-5 minutes • Collect all fragments, incubate with 2 ml Collagenase Type 1+2 ml Collagenase type II and transfer to a 6 well plate, • Incubate fragments for 45 min at 37° C. 5% CO2, • Add 5 ml Adv +++ and transfer in to a 50 ml Falcon tube, • Vortex vigorously for 30 seconds, • Let pieces settle down, take supernatant and transfer in to a fresh tube, • Add again 5 ml Adv +++, mix with a pipette, • Let pieces settle down, take supernatant and transfer in to a fresh tube, • Centrifuge for 5 min at 400 rpm, • Discard supernatant, • Prepare 10 ml Adv +++, add 30 μl Y-27632 and 10 μl hEGF (final conc. 10 ng/ml), • Resuspend cell pellet in medium, • Seed cell in a flask, • Incubate at 5% CO2 at 37° C. and grow cells 3-5 days prior to transfer to 3D culture. […]

Row | Molecule | response to carboplatin treatment (cell viability) [1] | effect of exogenous supplementation on ovarian cancer stem cells [2]
1 | N.N.O=C([O-])C1(C(=O)[O-])CCC1.[Pt+2] [carboplatin] | differences in responsivness and kinetics; also recorded: individual patient profiles in their response | 
2 | B1 |  | detrimental
